Reference: patent US12473274B2, “Heterocyclic compound as inhibitor of casein kinase 1-δ and/or activin receptor-like kinase 5” (Alchemedicine, Inc., priority 2020, dated 2025)

Key:
Type in all cases: biochemical
human p38α = target: T1, human p38α (Homo sapiens, UniProt Q16539); experiment: Test Example 1: p38α inhibition action (mobility shift, LabChip); conditions: Modified Erktide 1 μM, ATP 150 μM, Mg 5 mM, 1 hour room temperature
T1 construct: GST (N); made in house; host or cells: E. coli
Experimental: (§1) Evaluation of CK1δ Inhibitory Activity and p38α Inhibition Action
(§2) 1. Preparation of Solution of Test Substance
(§3) A test substance was dissolved in dimethyl sulfoxide (DMSO). The solution was further diluted with DMSO to prepare a solution at a concentration 100-fold greater than the test concentration. The solution was further 25-fold diluted with an assay buffer to prepare a solution of the test substance. The positive control substance was also treated as above to prepare a solution of the positive control substance.
(§4) 2. Preparation of Kinase Protein
p38α: Used was the human p38α prepared as followed: GST (66 KDa) was fused with the N-terminal of the 9-352 amino acid sequence site in accession number NP_620581.1, followed by expression in E. coli and then refining by a glutathione sepharose chromatography system, and the product was activated with His-tagged MAP2K6, and was again purified by the glutathione sepharose chromatography system.
(§5) 3. Reagent and Test Method
(§6) 5 μL of a 4-fold solution of the test substance prepared with an assay buffer (20 mM HEPES, 0.01% Triton X-100, 2 mM DTT, pH: 7.5), 5 μL of a 4-fold substrate/ATP/metal solution, and 10 μL of a 2-fold kinase solution were mixed in wells of a 384-well plate made of polypropylene, and were reacted at room temperature for 1 hour. 70 μL of Termination Buffer (QuickScout Screening Assist MSA; Carna Biosciences) was added to terminate the reaction. The substrate peptide and phosphorylated peptide in the reaction solution were separated by a LabChip system (Perkin Elmer), and were quantitated. The kinase reaction was evaluated based on the product ratio (P/(P+S)) calculated from the substrate peptide peak height (S) and the phosphorylated peptide peak height (P).
(§7) The average signal from control wells containing all the reaction components was defined as 0% inhibition, and the average signal from background wells (enzyme not added) was defined as 100% inhibition. The inhibition rate was calculated from the average signal of test wells containing each test substance. The IC50 value was determined through approximation of the plot against the test substance concentration and the inhibition rate to a 4-parameter logistic curve by non-linear least squares. The compounds in Examples had good CK1δ inhibition activity. A large difference was found between the CK1δ inhibition concentration and the p38α inhibition concentration.

ALK5 [1] = target: T2, ALK5 (Homo sapiens, UniProt P36897); experiment: Test Example 2: ALK5 inhibition action (ADP-Glo kinase assay)
T2 sequence (P36897 34-503): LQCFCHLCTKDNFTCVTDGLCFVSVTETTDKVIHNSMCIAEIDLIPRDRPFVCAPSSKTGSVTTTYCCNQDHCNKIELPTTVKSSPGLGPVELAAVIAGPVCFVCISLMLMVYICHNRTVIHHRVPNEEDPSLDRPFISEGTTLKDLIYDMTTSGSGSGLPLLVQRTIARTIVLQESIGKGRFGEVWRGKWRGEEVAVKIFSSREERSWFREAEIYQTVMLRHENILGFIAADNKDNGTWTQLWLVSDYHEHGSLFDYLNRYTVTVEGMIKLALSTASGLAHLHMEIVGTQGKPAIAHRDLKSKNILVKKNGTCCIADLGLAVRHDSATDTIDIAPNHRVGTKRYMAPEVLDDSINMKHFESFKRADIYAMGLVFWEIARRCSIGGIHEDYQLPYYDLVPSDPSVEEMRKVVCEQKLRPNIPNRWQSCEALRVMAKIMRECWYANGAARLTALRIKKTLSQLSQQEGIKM
Experimental: (§8) Evaluation of ALK5 Inhibition Action
as §2
A 10% DMSO stock solution (compound concentration: 10 mM) containing 0.1 mg/mL BSA (bovine serum albumin) was prepared as a solution of the test substance.
3. Reagent, Test Method, and Reaction Conditions
A kinase assay was performed using ADP-Glo™ assay kit available from Promega Corporation according to the following assay reaction recipe: • Component 1: 1 μL diluted active protein kinase • Component 2: 1 μL of the substrate • Component 3: 1 μL kinase assay buffer • Component 4: 1 μL of the compound (10 concentrations) or 10% DMSO • Component 5: 1 μL ATP stock (25 μM final well concentration)
The assay started with incubation of the reaction mixture in a 384-well plate at room temperature for 40 minutes. After the incubation, 5 μL ADP-Glo™ reagent was added. The plate was shaken, followed by incubation at room temperature for 40 minutes. […] The plate was measured on a GloMax plate reader using ADP-Glo™ Luminescence Protocol. […] The corrected activity value was calculated by subtracting the value of the blank control from the measured value.
The relative luminescence unit (RLU) was measured at 10 compound concentrations between 0.3 nM and 10,000 nM. The inhibition rate was calculated as follows: {(Control RLU−Test RLU)/(Control RLU−Background RLU)}×100 […]

human CK1δ = target: T3, human CK1δ (Homo sapiens, UniProt P48730); experiment: Test Example 1: CK1δ inhibitory activity (mobility shift, LabChip); conditions: for IC50: CKtide 1 μM, ATP 10 μM, Mg 5 mM, 1 hour room temperature; for Ratio (p38α/CK1δ): ratio of p38α IC50 to CK1δ IC50, Test Example 1
T3 construct: GST (N); made in house; host or cells: E. coli
T3 sequence (P48730 1-294): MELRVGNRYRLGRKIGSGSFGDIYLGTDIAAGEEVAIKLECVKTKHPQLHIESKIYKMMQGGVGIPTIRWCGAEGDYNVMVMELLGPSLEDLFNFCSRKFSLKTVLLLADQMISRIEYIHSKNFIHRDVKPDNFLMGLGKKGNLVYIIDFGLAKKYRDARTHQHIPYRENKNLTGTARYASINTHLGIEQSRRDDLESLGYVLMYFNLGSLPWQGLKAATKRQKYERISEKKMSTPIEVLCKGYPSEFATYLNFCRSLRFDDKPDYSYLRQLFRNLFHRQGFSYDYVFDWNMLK
Experimental: as §1, §2, §3, §4
CK1δ: Used was the human CK1δ prepared by fusing GST (61 KDa) with the N-terminal of the human CK1δ enzyme activity domain (1-294 amino acid sequence site in accession number NP_001884.2), followed by expression in E. coli and then refining by a glutathione sepharose chromatography system.
as §5, §6, §7

ALK5 [2] = target: T2, ALK5; experiment: Test Example 3: ALK5 inhibition action (ADP-Glo, SignalChem enzyme); parameters: GST; purchased SignalChem T07-11G; conditions: enzyme 5 ng/μL, TGFBR1 Peptide 200 ng/μL, ATP 25 μM, 2 hours
Experimental: as §8
Using a human recombinant GST-tagged TGFB available from SignalChem (Catalog No. T07-11G), a substrate peptide TGFBR1 Peptide (Catalog No. T36-58), and ADP-Glo assay kit (Promega Corporation), measurement was performed on a 5-μL reaction system in a 384-well plate (GloMax plate reader) according to the document attached to the ADP-Glo assay kit. For the reaction conditions used, the enzyme concentration was 5 ng/μL, the substrate concentration was 200 ng/μL, the ATP concentration was 25 μM, and the reaction time was 2 hours. The IC50 value was calculated using GraphPad Prism version 5.01 based on the inhibition rate where the test substance (8 to 10 concentrations, diluted 3-fold from 3000 nM) was added.

[3] = target: T4, human recombinant GST-tagged p38α (Homo sapiens, UniProt Q16539); experiment: Test Example 5: p38α inhibition action (ADP-Glo, SignalChem enzyme); conditions: enzyme 2 ng/μL, p38 Substrate 100 ng/μL, ATP 25 μM, 40 minutes
T4 construct: GST; purchased SignalChem M39-10 BG
Experimental: Evaluation of p38α Inhibition Action
(§9) Using a human recombinant GST-tagged p38α available from SignalChem (Catalog No. M39-10 BG), a substrate peptide p38 Substrate (Catalog No. P03-58), and ADP-Glo assay kit (Promega Corporation), measurement was performed on a 5-μL reaction system in a 384-well plate (GloMax plate reader) according to the document attached to the ADP-Glo assay kit. For the reaction conditions used, the enzyme concentration was 2 ng/μL, the substrate concentration was 100 ng/μL, the ATP concentration was 25 μM, and the reaction time was 40 minutes. The IC50 value was calculated using GraphPad Prism version 5.01 based on the inhibition rate where the test substance (8 to 10 concentrations, diluted 3-fold from 3000 nM) was added.

[4] = target: T5, human recombinant GST-tagged CK1δ (Homo sapiens, UniProt P48730); experiment: Test Example 4: CK1δ inhibition action (ADP-Glo, SignalChem enzyme); conditions: enzyme 2 ng/μL, Casein Dephosphorylated 200 ng/μL, ATP 25 μM, 40 minutes
T5 construct: GST; purchased SignalChem C65-10G
Experimental: Evaluation of CK1δ Inhibition Action
as §9, with “CK1δ” for “p38α”, “C65-10G),” for “M39-10 BG),”, “Casein Dephosphorylated” for “p38 Substrate”, “C03-54BN),” for “P03-58),”, “200” for “100”

T1 sequence (Q16539 9-352): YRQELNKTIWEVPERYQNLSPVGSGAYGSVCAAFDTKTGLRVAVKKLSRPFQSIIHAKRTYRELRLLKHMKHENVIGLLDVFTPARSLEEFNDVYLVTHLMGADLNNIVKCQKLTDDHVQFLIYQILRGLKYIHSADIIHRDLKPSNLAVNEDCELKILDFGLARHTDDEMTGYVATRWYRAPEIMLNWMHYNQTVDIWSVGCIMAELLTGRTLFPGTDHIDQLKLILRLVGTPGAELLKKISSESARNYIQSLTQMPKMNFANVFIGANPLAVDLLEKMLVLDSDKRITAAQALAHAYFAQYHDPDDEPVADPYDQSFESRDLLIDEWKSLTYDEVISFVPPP
T4 sequence (Q16539 whole entry): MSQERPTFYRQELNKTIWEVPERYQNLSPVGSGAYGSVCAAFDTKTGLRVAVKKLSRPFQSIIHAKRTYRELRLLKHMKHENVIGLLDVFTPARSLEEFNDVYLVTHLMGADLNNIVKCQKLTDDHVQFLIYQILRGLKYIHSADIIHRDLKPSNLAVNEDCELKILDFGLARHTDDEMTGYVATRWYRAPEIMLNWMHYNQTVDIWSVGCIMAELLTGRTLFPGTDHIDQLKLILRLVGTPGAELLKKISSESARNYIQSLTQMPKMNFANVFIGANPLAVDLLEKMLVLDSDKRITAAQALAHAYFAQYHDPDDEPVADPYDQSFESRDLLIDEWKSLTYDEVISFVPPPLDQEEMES
T5 sequence (P48730 whole entry): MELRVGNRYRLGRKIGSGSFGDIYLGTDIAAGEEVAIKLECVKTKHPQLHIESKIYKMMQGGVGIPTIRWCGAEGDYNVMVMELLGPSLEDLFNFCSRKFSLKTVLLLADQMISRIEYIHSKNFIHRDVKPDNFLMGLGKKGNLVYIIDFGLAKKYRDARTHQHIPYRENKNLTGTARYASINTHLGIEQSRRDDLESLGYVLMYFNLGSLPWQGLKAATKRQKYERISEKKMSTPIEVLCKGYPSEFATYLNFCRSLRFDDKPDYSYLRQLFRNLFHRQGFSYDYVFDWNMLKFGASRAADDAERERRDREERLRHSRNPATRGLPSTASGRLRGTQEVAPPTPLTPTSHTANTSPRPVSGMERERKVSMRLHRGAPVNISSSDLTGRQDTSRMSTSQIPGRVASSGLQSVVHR

IC50 (human p38α)	IC50 (ALK5 [1]; ATP 25 μM, 40 minutes, 10 concentrations 0.3-10,000 nM)	ALK5 inhibition activity (in words) (ALK5 [1]; Test Example 2, comment on Table 3)	IC50 (human CK1δ)	Ratio (p38α/CK1δ) (human CK1δ)	IC50 (ALK5 [2])	IC50 [3]	IC50 [4]	SMILES
4000 nM	31 nM	good ALK5 inhibition activity	21 nM	190	–	–	–	c1ccc(-c2[nH]cnc2-c2ccc3c(c2)COC3)nc1 [Example 1, 2-(4-(1,3-Dihydroisobenzofuran-5-yl)-1H-imidazol-5-yl)pyridine]
> 10000 nM	–	–	68 nM	>150	–	–	–	Cc1nc(-c2ccc3c(c2)COC3)c(-c2ccccn2)[nH]1 [Example 2, 2-(4-(1,3-Dihydroisobenzofuran-5-yl)-2-methyl-1H-imidazol-5-yl)pyridine]
4400 nM	–	–	48 nM	92	–	–	–	Fc1ccc(-c2[nH]cnc2-c2ccc3c(c2)COC3)nc1 [Example 3, 2-(4-(1,3-Dihydroisobenzofuran-5-yl)-1H-imidazol-5-yl)-5-fluoropyridine]
5200 nM	–	–	110 nM	47	46 nM	–	–	Cc1cccc(-c2[nH]cnc2-c2ccc3c(c2)COC3)n1 [Example 4, 2-(4-(1,3-Dihydroisobenzofuran-5-yl)-1H-imidazol-5-yl)-6-methylpyridine]
–	–	–	–	–	330 nM	> 3000 nM	200 nM	c1ccc(-c2[nH]c(C3CC3)nc2-c2ccc3c(c2)COC3)nc1 [Example 5, 2-(2-Cyclopropyl-4-(1,3-dihydroisobenzofuran-5-yl)-1H-imidazol-5-yl)pyridine]
